One test addresses hT2R3 (Homo sapiens (Human), UniProt Q9NYW6). Briefly: hT2R panel inhibition, transient HEK293 G16g44, agonist Chloroquine pH6.5 50 μM. It is filed as cell-based. Conditions: HEK293, compound at 25 μM. In short, it runs like this:
(§1)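 Panel: 22 human T2Rs, individually transient in stable G16g44 cells. Stim: EC80 agonist. Output: % reduction of activity by test cpd.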

Another test addresses hT2R13 (Homo sapiens (Human), UniProt Q9NYV9). Briefly: hT2R panel inhibition, transient HEK293 G16g44, agonist Oxyphenonium 1 mM. Type of test: cell-based. To be noted: HEK293, compound at 25 μM. As to the method:
Specifically, in order to evaluate the inhibitory selectivity of the Compound C compound, this compound was tested against 22 human T2Rs which were deorphaned by Senomyx. These receptors and the bitter ligands that activate these human T2Rs are reported in earlier patent applications which are incorporated by reference herein. These 22 human T2Rs are hT2R1, 3, 4, 5, 7, 8, 9, 10, 13, 14, 16, 44, 51, 54, 55, 61, 63, 64, 65, 67, 71 and 75. The amino acid and nucleic acid sequences of all of these T2Rs may be found in these earlier patent applications. These human T2Rs were each individually transiently transfected into HEK293 cells that stably express the promiscuous G protein G16g44 and functional assays were effected using these receptors as disclosed in these same patent applications. […] The ligands were used at EC80 concentration levels. The list of bitter ligands utilized and the tested ligand concentrations are contained in Table 5 of this example.
Relating to the foregoing, FIG. 5 contains experimental results wherein Compound C was tested with different agonist compounds. The inhibition activity is represented by the reduction of receptor activity in the presence of Compound C. […] These 13 hT2Rs are hT2R3, 7, 10, 14, 16, 44, 51, 55, 61, 63, 64, 65, and 71.

For a further test, the system named is hT2R44. The test can be described thus: hT2R panel inhibition, transient HEK293 G16g44, agonist Denatonium 0.5 μM. Type of test: cell-based, human. Conditions: compound at 25 μM; for inhibition of bitter receptor 44: receptor activated to EC80 with agonist. In short, it runs like this:
as §1

A further test has as its system hT2R67. Briefly: hT2R panel inhibition, transient HEK293 G16g44, agonist Andrographolide 5 μM. To be noted: compound at 25 μM. It is filed as cell-based, human. In short, it runs like this:
as §1

For a further test, the system named is hT2R63. The test can be described thus: hT2R panel inhibition, transient HEK293 G16g44, agonist Caffeine 1 mM or Andrographolide 100 μM. It is filed as cell-based, human. Conditions: compound at 25 μM; for inhibition of bitter receptor 63: receptor activated to EC80 with agonist. In short, it runs like this: as §1
The next test deals with hT2R4 (Homo sapiens (Human), UniProt Q9NYW5). Briefly: hT2R panel inhibition, transient HEK293 G16g44, agonist Chloroquine pH6.5 5 mM. It is filed as cell-based. Conditions: HEK293, compound at 25 μM. In short, it runs like this:
as §1

The target of another test is hT2R61 (Homo sapiens (Human), UniProt P59537). The test can be described thus: hT2R panel inhibition, transient HEK293 G16g44, agonist Aristolochic Acid 25 nM. Conditions: HEK293, compound at 25 μM. Type of test: cell-based. In short, it runs like this:
as §1

In a further test the test system is hT2R65. Briefly: hT2R panel inhibition, transient HEK293 G16g44, agonist Oleuropein 1 mM. It is filed as cell-based, human. To be noted: compound at 25 μM. In short, it runs like this: as §1
Another test deals with hT2R64 (Homo sapiens (Human), UniProt P59538). Briefly: hT2R panel inhibition, transient HEK293 G16g44, agonist Aristolochic Acid 1 μM. Type of test: cell-based. Conditions: HEK293, compound at 25 μM. In short, it runs like this: as §1
A further test concerns the target hT2R16 (Homo sapiens (Human), UniProt Q9NYV7). The test can be described thus: hT2R panel inhibition, transient HEK293 G16g44, agonist Salicin 1 mM. It is filed as cell-based. Conditions: HEK293, compound at 25 μM. In short, it runs like this: as §1
The next test addresses hT2R71 (Homo sapiens (Human), UniProt P59536). The test can be described thus: hT2R panel inhibition, transient HEK293 G16g44, agonist Picric Acid 10 μM. To be noted: HEK293, compound at 25 μM. It is filed as cell-based. In short, it runs like this: as §1
The test system of another test is hT2R55. Briefly: hT2R panel inhibition, transient HEK293 G16g44, agonist Cinchonine 150 μM. It is filed as cell-based, human. Conditions: compound at 25 μM. In short, it runs like this:
as §1

Test [1] deals with T1, hT2R14 (Homo sapiens (Human), UniProt Q9NYV8). Briefly: hT2R panel inhibition, transient HEK293 G16g44, agonist Aristolochic Acid 2 μM. Type of test: cell-based. To be noted: HEK293, compound at 25 μM. In short, it runs like this: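 Agonist challenge was at EC80, with 0.5 mM andrographolide on hT2R8 and 2 μM aristolochic acid on hT2R14. Inhibition was measured in functional assays in HEK293 cells that stably carry the promiscuous G protein G16g44 and were transiently transfected with the individual receptor.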

Another test concerns the target hT2R51 (Homo sapiens (Human), UniProt P59533). Briefly: hT2R panel inhibition, transient HEK293 G16g44, agonist Prop 2.5 μM. Type of test: cell-based. To be noted: HEK293, compound at 25 μM; receptor activated to EC80 with agonist; read-out: inhibition of bitter receptor 51. In short, it runs like this:
as §1

The test system of another test is hT2R54. The test can be described thus: hT2R panel inhibition, transient HEK293 G16g44, agonist Ranitidine 5 mM. Type of test: cell-based, human. To be noted: compound at 25 μM; receptor activated to EC80 with agonist. In short, it runs like this:
as §1

For another test, the target named is hT2R7 (Homo sapiens (Human), UniProt Q9NYW3). The test can be described thus: hT2R panel inhibition, transient HEK293 G16g44, agonist Chloroquine pH6.5 10 mM. It is filed as cell-based. To be noted: HEK293, compound at 25 μM; receptor activated to EC80 with agonist; read-out: inhibition of bitter receptor 7. In short, it runs like this:
as §1

For the next test, the target named is hT2R10 (Homo sapiens (Human), UniProt Q9NYW0). The test can be described thus: hT2R panel inhibition, transient HEK293 G16g44, agonist Strychnine 50 μM. It is filed as cell-based. Conditions: HEK293, read-out: inhibition of bitter receptor 10, compound at 25 μM; receptor activated to EC80 with agonist.
Test [2] concerns the target T1, hT2R14. The test can be described thus: hT2R14 antagonist high-throughput FLIPR assay, stable cell line with G16g44, agonist aristolochic acid. Type of test: cell-based. Conditions: read-out: IC50 on hT2R14 bitter receptor. In short, it runs like this:
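Compounds were co-applied with 3 μM aristolochic acid, a dose set to reach 70-80% of maximal hT2R14 activation. Read-out was FLIPR fluorescence in a stable HEK293 line co-expressing hT2R14 and G16g44.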

A further test addresses hT2R9 (Homo sapiens (Human), UniProt Q9NYW1). The test can be described thus: hT2R panel inhibition, transient HEK293 G16g44, agonist Ofloxacin 1 mM. Type of test: cell-based. To be noted: HEK293, compound at 25 μM; receptor activated to EC80 with agonist; read-out: inhibition of bitter receptor 9. In short, it runs like this:
as §1

The mark [3] stands for this setting: receptor activated to EC80 with the corresponding agonist.
Where [4] appears, read: receptor activated to EC80 with agonist, read-out: inhibition of bitter receptor 13.
Setting [5] is: receptor activated to EC80 with agonist.
[6] abbreviates: receptor activated to EC80 with agonist, read-out: inhibition of bitter receptor 61.
Setting [7] is: receptor activated to EC80 with agonist, read-out: inhibition of bitter receptor 14.

Consider three compounds from US9247759B2, “Identification of human T2R receptors that respond to bitter compounds that elicit the bitter taste in compositions, and the use thereof in assays to identify compounds that inhibit (block) bitter taste in compositions and use thereof” (SENOMYX, INC., priority 2007, dated 2016).

Read-outs that look alike come from different tables or passages of the source.

As usually defined, the IC50 is the point on the concentration scale where inhibition reaches its midpoint.

T1 sequence (Q9NYV8 whole entry): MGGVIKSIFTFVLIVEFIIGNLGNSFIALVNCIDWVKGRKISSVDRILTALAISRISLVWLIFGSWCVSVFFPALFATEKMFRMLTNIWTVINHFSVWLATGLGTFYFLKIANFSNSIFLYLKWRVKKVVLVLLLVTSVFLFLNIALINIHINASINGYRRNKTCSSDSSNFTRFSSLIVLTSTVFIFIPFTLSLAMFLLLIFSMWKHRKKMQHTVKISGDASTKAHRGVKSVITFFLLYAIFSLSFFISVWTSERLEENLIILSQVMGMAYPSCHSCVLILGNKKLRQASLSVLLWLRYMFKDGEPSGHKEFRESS
Sequence of hT2R13 (Q9NYV9 whole entry): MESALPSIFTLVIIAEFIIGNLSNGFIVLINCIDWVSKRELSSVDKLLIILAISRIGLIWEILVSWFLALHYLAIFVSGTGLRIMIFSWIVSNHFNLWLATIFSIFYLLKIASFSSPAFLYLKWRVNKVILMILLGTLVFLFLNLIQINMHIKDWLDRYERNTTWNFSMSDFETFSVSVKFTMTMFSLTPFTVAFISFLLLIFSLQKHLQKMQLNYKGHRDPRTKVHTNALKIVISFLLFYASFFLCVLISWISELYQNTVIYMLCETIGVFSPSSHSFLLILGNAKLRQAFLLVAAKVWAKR
Sequence of hT2R61 (P59537 whole entry): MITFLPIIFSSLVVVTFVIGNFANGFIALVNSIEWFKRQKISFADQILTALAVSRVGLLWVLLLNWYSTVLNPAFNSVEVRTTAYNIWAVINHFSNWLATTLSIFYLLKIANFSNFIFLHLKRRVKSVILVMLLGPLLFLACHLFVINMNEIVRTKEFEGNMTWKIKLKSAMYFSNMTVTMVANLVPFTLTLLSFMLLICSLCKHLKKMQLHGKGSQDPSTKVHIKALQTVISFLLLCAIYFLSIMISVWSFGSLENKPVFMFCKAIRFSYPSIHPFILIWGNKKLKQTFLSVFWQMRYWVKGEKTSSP
Sequence of hT2R71 (P59536 whole entry): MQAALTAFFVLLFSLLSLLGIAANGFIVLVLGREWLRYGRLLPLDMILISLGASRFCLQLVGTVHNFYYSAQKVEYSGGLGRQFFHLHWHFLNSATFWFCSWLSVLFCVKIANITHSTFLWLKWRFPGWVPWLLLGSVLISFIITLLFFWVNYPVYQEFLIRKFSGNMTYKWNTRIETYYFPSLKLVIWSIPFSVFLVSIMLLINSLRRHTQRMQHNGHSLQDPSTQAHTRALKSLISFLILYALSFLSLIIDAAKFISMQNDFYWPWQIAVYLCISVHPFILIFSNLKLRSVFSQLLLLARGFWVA
Sequence of hT2R16 (Q9NYV7 whole entry): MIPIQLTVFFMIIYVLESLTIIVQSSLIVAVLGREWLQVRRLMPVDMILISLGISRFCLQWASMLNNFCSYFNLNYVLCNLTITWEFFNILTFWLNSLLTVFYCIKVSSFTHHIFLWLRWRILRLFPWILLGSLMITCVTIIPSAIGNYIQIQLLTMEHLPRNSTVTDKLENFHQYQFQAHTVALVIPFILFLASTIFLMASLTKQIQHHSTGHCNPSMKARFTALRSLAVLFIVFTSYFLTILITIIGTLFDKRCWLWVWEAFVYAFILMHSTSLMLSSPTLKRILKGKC
Sequence of hT2R3 (Q9NYW6 whole entry): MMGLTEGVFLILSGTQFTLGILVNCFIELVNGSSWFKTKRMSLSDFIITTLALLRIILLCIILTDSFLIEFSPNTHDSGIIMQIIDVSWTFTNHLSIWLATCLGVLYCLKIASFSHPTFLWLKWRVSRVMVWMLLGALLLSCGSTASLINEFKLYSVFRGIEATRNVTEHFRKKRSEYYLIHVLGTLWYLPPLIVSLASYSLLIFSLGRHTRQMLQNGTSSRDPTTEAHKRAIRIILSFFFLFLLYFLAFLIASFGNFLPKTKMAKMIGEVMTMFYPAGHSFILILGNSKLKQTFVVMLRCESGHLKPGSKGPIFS
Sequence of hT2R7 (Q9NYW3 whole entry): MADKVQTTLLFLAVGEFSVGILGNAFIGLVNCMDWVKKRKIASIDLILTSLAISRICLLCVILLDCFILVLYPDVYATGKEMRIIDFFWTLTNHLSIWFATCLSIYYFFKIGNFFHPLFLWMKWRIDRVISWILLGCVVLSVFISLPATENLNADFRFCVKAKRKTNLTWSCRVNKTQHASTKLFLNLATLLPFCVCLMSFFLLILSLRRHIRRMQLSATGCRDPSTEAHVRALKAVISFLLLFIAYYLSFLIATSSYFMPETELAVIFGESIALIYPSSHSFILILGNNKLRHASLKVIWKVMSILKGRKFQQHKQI
Sequence of hT2R4 (Q9NYW5 whole entry): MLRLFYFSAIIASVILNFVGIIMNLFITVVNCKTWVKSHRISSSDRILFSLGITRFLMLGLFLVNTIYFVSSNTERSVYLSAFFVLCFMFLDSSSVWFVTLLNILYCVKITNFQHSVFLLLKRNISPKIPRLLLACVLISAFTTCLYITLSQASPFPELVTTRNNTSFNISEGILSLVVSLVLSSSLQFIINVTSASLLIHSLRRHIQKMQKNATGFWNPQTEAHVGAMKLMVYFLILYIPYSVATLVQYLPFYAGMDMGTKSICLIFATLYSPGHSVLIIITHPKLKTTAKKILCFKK
Sequence of hT2R64 (P59538 whole entry): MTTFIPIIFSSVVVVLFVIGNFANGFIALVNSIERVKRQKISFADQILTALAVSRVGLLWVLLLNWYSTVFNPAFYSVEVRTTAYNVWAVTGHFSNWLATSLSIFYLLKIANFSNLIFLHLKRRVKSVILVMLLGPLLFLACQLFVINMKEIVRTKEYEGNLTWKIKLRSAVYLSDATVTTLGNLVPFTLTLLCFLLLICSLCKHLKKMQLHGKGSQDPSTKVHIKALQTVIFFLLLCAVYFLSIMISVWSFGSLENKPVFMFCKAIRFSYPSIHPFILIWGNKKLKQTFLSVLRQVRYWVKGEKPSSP
Sequence of hT2R10 (Q9NYW0 whole entry): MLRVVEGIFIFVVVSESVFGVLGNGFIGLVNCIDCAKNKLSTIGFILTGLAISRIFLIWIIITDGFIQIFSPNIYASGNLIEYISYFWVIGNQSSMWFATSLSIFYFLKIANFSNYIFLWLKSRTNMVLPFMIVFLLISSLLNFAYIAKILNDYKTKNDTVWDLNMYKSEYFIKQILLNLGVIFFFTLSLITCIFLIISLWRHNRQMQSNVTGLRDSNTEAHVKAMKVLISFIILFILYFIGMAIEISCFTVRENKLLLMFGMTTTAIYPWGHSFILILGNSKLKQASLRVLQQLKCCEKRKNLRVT
Sequence of hT2R9 (Q9NYW1 whole entry): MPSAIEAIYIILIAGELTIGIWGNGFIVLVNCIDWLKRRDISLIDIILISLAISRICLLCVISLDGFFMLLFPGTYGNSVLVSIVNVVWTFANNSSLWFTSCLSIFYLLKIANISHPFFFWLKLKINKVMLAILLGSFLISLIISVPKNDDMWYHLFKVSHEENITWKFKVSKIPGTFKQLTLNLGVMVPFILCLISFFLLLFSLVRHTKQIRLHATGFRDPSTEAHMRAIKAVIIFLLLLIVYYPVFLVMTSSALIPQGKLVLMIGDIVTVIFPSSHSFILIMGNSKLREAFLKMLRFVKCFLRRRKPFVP
Sequence of hT2R51 (P59533 whole entry): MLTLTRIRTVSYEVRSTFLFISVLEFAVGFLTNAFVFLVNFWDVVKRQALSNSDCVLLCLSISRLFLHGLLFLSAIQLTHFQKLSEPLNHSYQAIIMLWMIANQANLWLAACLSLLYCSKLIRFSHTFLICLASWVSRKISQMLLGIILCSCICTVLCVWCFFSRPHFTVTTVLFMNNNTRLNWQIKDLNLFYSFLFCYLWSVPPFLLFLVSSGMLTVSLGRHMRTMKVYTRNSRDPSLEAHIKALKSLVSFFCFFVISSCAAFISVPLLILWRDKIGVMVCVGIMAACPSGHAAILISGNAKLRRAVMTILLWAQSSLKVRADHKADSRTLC

Consider `COc1ccc(CN(C2CCCc3ccccc32)S(=O)(=O)c2ccc(C(=O)O)cc2)cc1` (centres unmarked) [Example 5-96, 4-(N-(4-methoxybenzyl)-N-(1,2,3,4-tetrahydronaphthalen-1-yl)sulfamoyl)benzoic acid], for which the inhibition at 25 µM is 20 to 40% at hT2R3 (receptor activated to EC80 with the corresponding agonist, read-out: screening result against bitter receptor 3); 20 to 40% on hT2R13 (receptor activated to EC80 with the corresponding agonist, read-out: screening result against bitter receptor 13); 20 to 40% on hT2R4 (receptor activated to EC80 with the corresponding agonist, class symbols, read-out: screening result against bitter receptor 4); above 80% at hT2R61 (receptor activated to EC80 with the corresponding agonist, read-out: screening result against bitter receptor 61); 60 to 80% at hT2R64 (receptor activated to EC80 with the corresponding agonist, read-out: screening result against bitter receptor 64); 20 to 40% on hT2R16 (receptor activated to EC80 with the corresponding agonist, read-out: screening result against bitter receptor 16). Besides, the inhibition at 25 µM on hT2R71 (receptor activated to EC80 with the corresponding agonist, read-out: screening result against bitter receptor 71) was 40 to 60%; at hT2R14 [1] (receptor activated to EC80 with the corresponding agonist, read-out: screening result against bitter receptor 14) it was above 80%. The “screening result against bitter receptor 44” value in the test on hT2R44 (setting [3]) is on record as “+++ (60% to 80% inhibition = +++)”. In addition, the “screening result against bitter receptor 67” value in the test on hT2R67 (setting [3]) is reported as “+ (20% to 40% inhibition = +)”. For the same compound, the “screening result against bitter receptor 63” value in the test with hT2R63 (setting [3]) was “++++ (80% or greater inhibition = ++++)”. Further, the “screening result against bitter receptor 65” value with hT2R65 (setting [3]) is on record as “++++ (80% or greater inhibition = ++++)”. Further, the “screening result against bitter receptor 55” value in the test on hT2R55 (setting [3]) was “++++ (80% or greater inhibition = ++++)”.

Regarding `CCCOc1ccc(CN(Cc2ccccc2)S(=O)(=O)c2ccc(C(=O)O)cc2)cc1` [Example 5-109, 4-(N-benzyl-N-(4-propoxybenzyl)sulfamoyl)benzoic acid], the inhibition at 25 µM at hT2R3 (receptor activated to EC80 with agonist, read-out: inhibition of bitter receptor 3) was 40 to 60%; on hT2R13 (setting [4]), 20 to 40%; at hT2R51, 40 to 60%; on hT2R4 (receptor activated to EC80 with agonist, read-out: inhibition of bitter receptor 4), 40 to 60%; at hT2R61 (setting [6]), 60 to 80%; on hT2R64 (receptor activated to EC80 with agonist, read-out: inhibition of bitter receptor 64), above 80%. Also, the inhibition at 25 µM at hT2R7 was 20 to 40%; at hT2R10 it was 40 to 60%; at hT2R16 (receptor activated to EC80 with agonist, read-out: inhibition of bitter receptor 16), 20 to 40%; on hT2R71 (receptor activated to EC80 with agonist, read-out: inhibition of bitter receptor 71) it was 60 to 80%; at hT2R14 [1] (setting [7]) it was above 80%. Moreover, the “inhibition of bitter receptor 44” value in the test on hT2R44 is on record as “++ (40% to 60% inhibition = ++)”. Further, the “inhibition of bitter receptor 54” value in the test with hT2R54 was “+ (20% to 40% inhibition = +)”. Moreover, the “inhibition of bitter receptor 67” value in the test with hT2R67 (setting [5]) is on record as “+ (20% to 40% inhibition = +)”. Further, the “inhibition of bitter receptor 63” value with hT2R63 is given as “++ (40% to 60% inhibition = ++)”. The “inhibition of bitter receptor 65” value with hT2R65 (setting [5]) is on record as “+++ (60% to 80% inhibition = +++)”. Moreover, the “inhibition of bitter receptor 55” value with hT2R55 (setting [5]) is reported as “++++ (80% or greater inhibition = ++++)”.

As for `Cn1c(=O)c(=O)n(C)c2cc(S(=O)(=O)Nc3ccc(Cc4ccccn4)cc3)ccc21` [Example 6-4, 1,4-dimethyl-2,3-dioxo-N-(4-(pyridin-2-ylmethyl)phenyl)-1,2,3,4-tetrahydroquinoxaline-6-sulfonamide], the inhibition at 25 µM on hT2R13 (setting [4]) was above 80%; at hT2R61 (setting [6]), 20 to 40%; on hT2R7, 20 to 40%; at hT2R9 it was 20 to 40%; on hT2R14 [1] (setting [7]) it was above 80%. Moreover, in the test with hT2R44, the “inhibition of bitter receptor 44” value is “+ (20% to 40% inhibition = +)”. Besides, in the test with hT2R63, the “inhibition of bitter receptor 63” value is reported as “+ (20% to 40% inhibition = +)”. In addition, the IC50 on hT2R14 [2] turned out to be 6.14 µM.
